This is an account of results in US20130296331A1, “COMPOSITIONS AND METHODS FOR AMELIORATING RENAL DYSFUNCTION INDUCED BY RENAL HYPOPERFUSION OR ACUTE KIDNEY INJURY” (Technion Research and Development Foundation Ltd., priority 2010, published 2013).

The structures appear in SMILES notation.

One experiment deals with rats with MI. Description: Pneumoperitoneum (incremental IAP) in rats with myocardial infarction (LAD occlusion). In kind it is in vivo, rat. The note with it: pretreated 10 mg/kg/day for 4 days. The procedure: Rats were anesthetized with a combination of ketamine (87 mg/kg) and xylazine (13 mg/kg), intubated, and mechanically ventilated at a rate of 80-90 cycles per minute with a tidal volume of 1-2 ml/100 gr. MI was induced by the most common method. Specifically, the left anterior descending (LAD) artery was completely and permanently occluded. Consequently, a large area of the left ventricle wall was deprived of its blood supply, and was thus exposed to hypoxia, ischemia, nutrient starvation and other conditions that develop under these circumstances. Seven days after LAD inclusion, the rats were used in the experimental model of pneumoperitoneum described below.
(§1) The abdomen was opened via small incision in the lower third between the xiphoid and pubis and the urinary bladder was catheterized for urine collection. A Veress needle was inserted into the abdominal cavity and connected to the CO2 gas supply to maintain intra-abdominal pressure (IAP) at the desired level using a special insufflator (Aesculap, Tuttlingen, Germany). The muscle and skin layers of the abdominal wall were closed separately by silk sutures in an airtight manner (FIG. 2).
(§2) Male Sprague-Dawley rats were organized into several groups. Normal rats, rats with compensated or decompensated CHF (n=12-13), and rats with MI (n=7) were subjected to IAP of 0 (baseline), 7, 10 or 14 mmHg, over 45-60 min for each pressure, followed by deflation period of 60 min (recovery), as illustrated in Scheme 1. Six additional rats with decompensated CHF and seven additional rats with MI were pretreated with the phosphodiesterase type 5 (PDE5) inhibitor Cialis® (tadalafil; 10 mg/kg/day) for 4 days prior to the experiment. Urine flow rate (V), absolute Na^+ excretion (UNaV), glomerular filtration rate (GFR), renal plasma flow (RPF) and blood pressure were determined throughout the experiments.
In this study we tested whether rats with heart failure induced by myocardial infarction (MI) display renal susceptibility to IAP similar to that of rats with CHF induced by the creation of ACF. As expected and shown in FIGS. 9A-9D, rats with MI had lower basal GFR and RPF compared with control animals. […] These adverse effects were more profound in rats with MI as compared with sham controls.

Experiment [1] has as its system rats with ischemic acute kidney injury. Description: Experimental acute kidney injury induced by warm renal ischemia of 45 min (renal artery clamping). The format is in vivo, rat. To be noted: rats pretreated before renal ischemia of 45 min. Here is the method:
Male Sprague Dawley rats weighing 300-350 gr were housed under standardized conditions for 2-3 days. Following an overnight fast, the animals were anaesthetized with an inactin anesthesia (100 mg/kg, IP) and placed on a controlled heating (thermoregulated) table keeping the body temperature at 37° C. Polyethylene tubes (PE50) were inserted into the right carotid artery for blood pressure monitoring and blood sampling, and into the jugular vein for infusion of 0.9% normal saline (0.9% NaCl) at a 1.5 ml/h rate, as well as 2% inulin and 1% para-aminohippuric acid (PAH) at a rate of 1.5 ml/h, by syringe pumps. Arterial blood pressure was continuously monitored with a pressure transducer connected to the carotid arterial line. Additional two catheters were inserted after a supravesical incision into the bladder for urine collection. In order to minimize dehydration, the abdominal area was covered with saline-soaked gauze. After 2 baseline urine collections, the left renal artery and vein were dissected and the perirenal fat was preserved. […] Urinary samples were analyzed for neutrophil gelatinase-associated lipocalcin (NGAL) and kidney injury molecule 1 (KIM-1), two novel biomarkers of renal damage. […] The levels of NGAL and KIM-1 were determined in urine samples prior to acute kidney injury (AKI) and at various time points following renal artery clamping.

For experiment [2], the system named is rats with decompensated CHF. Nature of the experiment: Pneumoperitoneum (incremental IAP) in rats with decompensated CHF induced by aorto-caval fistula. The format is in vivo, rat. To be noted: pretreated 10 mg/kg/day for 4 days.
Text: CHF was induced by surgical creation of aorto-caval fistula (ACF) between the abdominal aorta and the vena cava, as schematically shown in FIG. 1. […] Similar pattern was reported in clinical CHF.
as §1, §2
In this study, the effects of the phosphodiesterase type 5 (PDE5) inhibitor Cialis® (tadalafil), administered as described in Materials and Methods, on the adverse effects of incremental IAP, simulating pneumoperitoneum, on GFR, RPF, urinary flow rate (V), urinary sodium excretion (UNaV) and urinary cGMP excretion (UcGMP), in rats with decompensated CHF were tested.

The subject of experiment [3] is rats subjected to IAP of 14 mm Hg. To be noted: rat, in vivo; cited from earlier work.

As for `CN1CC(=O)N2[C@H](c3ccc4c(c3)OCO4)c3[nH]c4ccccc4c3C[C@@H]2C1=O` [Cialis®, (6R-trans)-6-(1,3-benzodioxol-5-yl)-2,3,6,7,12,12a-hexahydro-2-methyl-pyrazino[1′,2′:1,6]pyrido[3,4-b]indole-1,4-dione], the “inhibitory effect of IAP on urinary cGMP excretion (UcGMP V)” value in the experiment with rats with MI (FIG. 11) is reported as “significantly attenuated”; in experiment [2] (FIG. 8), “prevented”. For the same compound, in the experiment with rats with MI (FIGS. 9A-9B), the “adverse effects of pneumoperitoneum on GFR” value was “substantially attenuated”. For the same compound, in the experiment with rats with MI (FIGS. 9C-9D), the “adverse effects of pneumoperitoneum on RPF” value is “substantially attenuated”. Moreover, the “adverse effects of pneumoperitoneum on urinary flow rate (V)” value in the experiment with rats with MI (IAP 14 mmHg, FIG. 10A) is given as “partially ameliorated”. In the experiment on rats with MI (IAP 14 mmHg, FIG. 10B), the “adverse effects of pneumoperitoneum on urinary sodium excretion (UnaV)” value is “partially ameliorated”. Also, the “urinary excretion of NGAL” value in experiment [1] (FIG. 13A) is reported as “significantly attenuated”. In experiment [1] (FIG. 13B), the “urinary excretion of KIM-1” value is on record as “significantly attenuated”. Also, in experiment [2] (FIG. 7A), the “adverse effects of increased IAP on urinary flow rate (V)” value was “abolished”. In addition, the “adverse effects of increased IAP on urinary sodium excretion (UNaV)” value in experiment [2] (FIG. 7B) is given as “abolished”. In addition, the “adverse effects of increased IAP on GFR” value in experiment [2] (IAP 7, 10, 14 mmHg, FIGS. 6A-6B) was “remarkably attenuated”. For the same compound, the “adverse effects of increased IAP on RPF” value in experiment [2] (IAP 7, 10, 14 mmHg, FIGS. 6C-6D) is reported as “remarkably attenuated”.

`O=[N+]([O-])OCC(CO[N+](=O)[O-])O[N+](=O)[O-]` [nitroglycerine]: the “IAP-induced renal dysfunction (decreased renal excretory function and hypofiltration)” value in experiment [3] was “partially ameliorated”.
